Tests used:
Type in all cases: cell-based, mouse
EBM^9 explants = assay: Neural crest formation from EBM^9 explants
Protocol: Sox 10 probes were transcribed from pSox10E.1 (obtained from Dr. Peter Koopman, IMB, Brisbane, Australia). Anti-sense and sense probes were transcribed from HindIII or BamHI cut pSox10E.1 with […] or T3 RNA polymerase respectively.
EBM^9 were collected, washed in PBS, treated with 0.5 mM EGTA pH 7.5 for 3 minutes, washed in PBS and disaggregated to small clumps (20-200 cells) by trituration. Cell clumps were allowed to settle and single cells liberated during trituration were removed with the supernatant before plating onto tissue culture grade plasticware which had been coated with cellular fibronectin (1 μg/cm^2; obtained from M. D. Bettess, Department of Biochemistry, Adelaide University, Australia) and allowed to dry. Cells were cultured in Hams F12 containing 3% FCS and 10 ng/ml FGF2 and supplemented with either 0.1% 25 μM staurosporine (Sigma) in DMSO (final concentration, 25 nM) or 0.1% DMSO. Cellular aggregates were allowed to differentiate for 48 hours before fixation in 4% PFA for 30 minutes.

ES cells [1] = assay: Morphology of ES cell aggregates in suspension culture; conditions: medium supplemented with 100 units of LIF; data not shown
Protocol: (§1) All cell aggregates were formed from single cell suspensions (1×10^5 cells/ml) of ES or EPL cells cultured in bacterial petri dishes. ES cell and EPL cell embryoid bodies (EB and EPLEB respectively) were formed as described in Lake et al. (2000). EBM, cell aggregates formed and maintained in MEDII, were formed from ES cells aggregated in IC:DMEM (DMEM (Gibco BRL #12800) with 10% foetal calf serum (FCS; Commonwealth Serum Laboratories), […] gentamycin, 1 mM L-glutamine and 0.1 mM B-mercaptoethanol (B-ME)) supplemented with 50% MEDII. Aggregates were divided 1 in 2 on days 2 and 4, and medium was changed on days 2 and 4 and then daily until collection. […] The time in days from formation of aggregates was denoted by superscript with the day of formation denoted as day 0. For example, EBM 5 days after formation are represented as EBM^5.
For continued suspension culture of EB and EBM, aggregates on day 7 were transferred to serum free medium (50% DMEM, 50% Hams F12 (Gibco BRL # 11765) supplemented with 1× ITSS supplement (Boehringer Mannhiem) and 10 ng/ml FGF2 (Peprotech Inc.)).
EB^4 and EBM^4 were fixed with 4% PFA for 30 minutes before embedding in paraffin wax and sectioning as described in Hogan et al., 1994. 7 μm sections were stained with haematoxylin:eosin as described by Kaufman, 1992 or with Hoescht […] (5 μg/ml) in PBS; Sigma) for 5 minutes.

ES cells [2] = assay: Differentiation potential of seeded ES cell aggregates (neurons, beating cardiocytes); conditions: 10-20 ng/ml added to the medium from day 4
Protocol: as §1
For adherent culture, aggregates were seeded onto gelatin treated tissue culture grade plasticware (Falcon) on day 7 of development in 500 μl DMEM supplemented with 10% FCS (Commonwealth serum Laboratories). […]
EB^7 and EBM^7 were seeded as described above and assessed on days 8, 10, 12 and 14 for the presence of neurons, identified morphologically by the presence of axonal projections (and confirmed by the expression of NF200; data not shown), and beating cardiocytes, identified morphologically by rhythmical contraction of cells within the aggregate.

Molecule: CN[C@@H]1C[C@H]2O[C@@](C)([C@@H]1OC)n1c3ccccc3c3c4c(c5c6ccccc6n2c5c31)C(=O)NC4 [staurosporine]
- Sox10 expression by in situ hybridisation (EBM^9 explants; 25 nM, 48 hours culture): observed in all cells
- morphology of EBM explants (EBM^9 explants; 25 nM, within three hours of seeding): surrounded by a halo of differentiating cells
- concentration required for uniform differentiation (EBM^9 explants; data not shown): greater than 10 nM

Molecule: LIF: cytokine leukaemia inhibitory factor
- morphology and gene expression profile of ES cell aggregates (ES cells [1]): did not duplicate the morphology or gene expression profile of EBM

B1: FGF4: growth factor from the FGF family (protein, UniProt P08620 31-206, looked up)
Fibroblast growth factor 4: APTAPNGTLEAELERRWESLVALSLARLPVAAQPKEAAVQSGAGDYLLGIKRLRRLYCNVGIGFHLQALPDGRIGGAHADTRDSLLELSPVERGVVSIFGVASRFFVAMSSKGKLYGSPFFTDECTFKEILLPNNYNAYESYKYPGMFIALSKNGKTKKGNRVSPTMKVTHFLPRL
- influence on the outcome of differentiation (ES cells [2]): did not influence the outcome of differentiation
